Reference: patent publication US20120183631A1, “INGREDIENT EXTRACTED FROM POUZOLZIA ZEYLANICA (L.) BENN AND ITS ANTI-ACNE FORMULA” (priority 2011, published 2012)

Tested on: endotoxin
Format: cell-based

COc1cc(/C=C/C(=O)CC(=O)/C=C/c2ccc(O)c(OC)c2)ccc1O [Curcumin]
Inhibition of endotoxin (in words): not restrained
